Data taken from patent US9956220B2, “Imidazo-pyridazine derivatives as casein kinase 1 δ/ϵ inhibitors” (Bristol-Myers Squibb Company, priority 2014, dated 2018).

Key:
CK1δ = CK1δ (Homo sapiens, UniProt P48730); experiment: CK1δ kinase assay (Caliper LABCHIP electrophoretic separation of fluoresceinated peptide substrate and product); type: biochemical; settings: 200 pM CK1δ, 50 μM ATP, 1.5 μM peptide substrate, 22 hours at room temperature
Protocol: (§1) CK1ϵ and CK1δ Kinase Assays
(§2) The kinase assay was performed in V-bottom 384-well plates.
(§3) The reaction was incubated at room temperature for 22 hours and terminated by adding 45 μl of 35 mM EDTA to each sample. The reaction mixture was analyzed on the Caliper LABCHIP®3000 (Caliper, Hopkinton, Mass.) by electrophoretic separation of the unphosphorylated substrate and phosphorylated product. […] Compounds were dissolved at 10 mM in dimethylsulfoxide (DMSO) and evaluated at eleven concentrations. IC50 values were derived by non-linear regression analysis.

CK1ϵ = CK1ϵ (Homo sapiens, UniProt P49674); experiment: CK1ϵ kinase assay (Caliper LABCHIP electrophoretic separation of fluoresceinated peptide substrate and product); type: biochemical; settings: 200 pM CK1ϵ, 50 μM ATP, 1.5 μM peptide substrate, 22 hours at room temperature; read-out: CK1ε (IC50)
CK1ϵ, sequence (P49674 whole entry): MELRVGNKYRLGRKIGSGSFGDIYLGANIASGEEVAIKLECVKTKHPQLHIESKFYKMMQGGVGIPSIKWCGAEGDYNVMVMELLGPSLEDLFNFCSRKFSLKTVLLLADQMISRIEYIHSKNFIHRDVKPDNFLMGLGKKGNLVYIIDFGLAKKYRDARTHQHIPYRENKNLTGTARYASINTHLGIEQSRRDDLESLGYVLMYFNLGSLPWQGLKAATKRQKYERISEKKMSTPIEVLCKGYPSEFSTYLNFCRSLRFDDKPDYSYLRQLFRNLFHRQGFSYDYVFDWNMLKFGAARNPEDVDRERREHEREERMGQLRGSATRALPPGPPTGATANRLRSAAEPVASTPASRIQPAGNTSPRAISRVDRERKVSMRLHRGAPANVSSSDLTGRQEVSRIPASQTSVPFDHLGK
Protocol: as §1, §2, §3

CK1δ, sequence (P48730 whole entry): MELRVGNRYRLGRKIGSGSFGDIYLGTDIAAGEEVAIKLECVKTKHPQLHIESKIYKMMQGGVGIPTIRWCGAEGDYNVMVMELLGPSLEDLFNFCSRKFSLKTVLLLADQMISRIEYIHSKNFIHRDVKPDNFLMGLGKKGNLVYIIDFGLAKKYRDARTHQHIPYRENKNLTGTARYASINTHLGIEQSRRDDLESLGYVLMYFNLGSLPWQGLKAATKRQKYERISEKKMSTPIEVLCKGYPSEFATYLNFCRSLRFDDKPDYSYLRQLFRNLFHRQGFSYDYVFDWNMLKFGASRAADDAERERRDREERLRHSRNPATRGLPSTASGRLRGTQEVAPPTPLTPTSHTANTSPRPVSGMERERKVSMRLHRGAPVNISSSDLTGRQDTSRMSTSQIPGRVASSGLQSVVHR

In the case of `O=C(Nc1cn2nc(-c3c(-c4ccc(F)cc4)nn4c3CCC4)ccc2n1)c1cc(F)nc(F)c1` [Example 66, 2,6-Difluoro-N-(6-(2-(4-fluorophenyl)-5,6-dihydro-4H-pyrrolo[1,2-b]pyrazol-3-yl)imidazo[1,2-b]pyridazin-2-yl)isonicotinamide], the IC50 (CK1δ) is reported as 0.7 nM and the IC50 (CK1ϵ) is reported as 5.3 nM.
`O=C(Nc1cn2nc(-c3c(-c4ccc(F)cc4)nn4c3CN(C(=O)c3ccncc3)CC4)ccc2n1)c1ccnc(F)c1` [Example 13, 2-Fluro-N-(6-(2-(4-fluorophenyl)-5-isonicotinoyl-4,5,6,7-tetrahydropyrazolo[1,5-a]pyrazin-3-yl)imidazo[1,2-b]pyridazin-2-yl) isonicotinamide] showed an IC50 (CK1δ) of 0.5 nM and an IC50 (CK1ϵ) of 4.5 nM.
`Cc1nc(-c2ccncc2)sc1C(=O)Nc1cn2nc(-c3c(-c4ccc(F)cc4)nn4c3CNCC4)ccc2n1` [Example 2, N-(6-(2-(4-Fluorophenyl)-4,5,6,7-tetrahydropyrazolo[1,5-a]pyrazin-3-yl)imidazo[1,2-b]pyridazin-2-yl)-4-methyl-2-(pyridin-4-yl)thiazole-5-carboxamide] gave an IC50 (CK1δ) of 0.2 nM and an IC50 (CK1ϵ) of 2.4 nM.
With `O=C(Nc1cn2nc(-c3c(-c4ccc(F)cc4)nn4c3CN(C(=O)c3cccnc3)CC4)ccc2n1)c1ccnc(F)c1` [Example 21, 2-Fluoro-N-(6-(2-(4-fluorophenyl)-5-nicotinoyl-4,5,6,7-tetrahydropyrazolo[1,5-a]pyrazin-3-yl)imidazo[1,2-b]pyridazin-2-yl) isonicotinamide] the IC50 (CK1δ) was 0.2 nM and the IC50 (CK1ϵ) was 3 nM.
Molecule `COC(=O)N1CCn2nc(-c3ccc(F)cc3)c(-c3ccc4nc(NC(=O)c5ccnc(F)c5)cn4n3)c2C1` [Example 33, Methyl 3-(2-(2-fluoroisonicotinamido)imidazo[1,2-b]pyridazin-6-yl)-2-(4-fluorophenyl)-6,7-dihydropyrazolo[1,5-a]pyrazine-5(4H)-carboxylate] has an IC50 (CK1δ) of 0.3 nM and an IC50 (CK1ϵ) of 1.9 nM.
For `O=C(Nc1cn2nc(-c3c(-c4ccc(F)cc4)nn4c3CN(C(=O)CCC(F)(F)F)CC4)ccc2n1)c1ccnc(F)c1` [Example 16, 2-Fluoro-N-(6-(2-(4-fluorophenyl)-5-(4,4,4-trifluorobutanoyl)-4,5,6,7-tetrahydropyrazolo[1,5-a]pyrazin-3-yl)imidazo[1,2-b]pyridazin-2-yl) isonicotinamide], the IC50 (CK1δ) was 0.8 nM and the IC50 (CK1ϵ) was 4.9 nM.
`CN1CCn2nc(-c3ccc(F)cc3)c(-c3ccc4nc(NC(=O)c5ccnc(F)c5)cn4n3)c2C1` [Example 26, 2-Fluoro-N-(6-(2-(4-fluorophenyl)-5-methyl-4,5,6,7-tetrahydropyrazolo [1,5-a]pyrazin-3-yl)imidazo[1,2-b]pyridazin-2-yl)isonicotinamide] showed an IC50 (CK1δ) of 0.4 nM and an IC50 (CK1ϵ) of 7.3 nM.
`O=C(Nc1cn2nc(-c3c(-c4ccc(F)cc4)nn4c3CN(C3COC3)CC4)ccc2n1)c1ccnc(F)c1` [Example 30, 2-Fluoro-N-(6-(2-(4-fluorophenyl)-5-(oxetan-3-yl)-4,5,6,7-tetrahydropyrazolo[1,5-a]pyrazin-3-yl)imidazo[1,2-b]pyridazin-2-yl)isonicotinamide] was tested, and the IC50 (CK1δ) was 0.5 nM and the IC50 (CK1ϵ) was 6.5 nM.
`O=C(Nc1cn2nc(-c3c(-c4ccc(F)cc4)nn4c3CN(S(=O)(=O)c3ccc(F)cc3)CC4)ccc2n1)c1ccnc(F)c1` [Example 37, 2-Fluoro-N-(6-(2-(4-fluorophenyl)-5-((4-fluorophenyl)sulfonyl)-4,5,6,7-tetrahydropyrazolo [1,5-a]pyrazin-3-yl)imidazo [1,2-b]pyridazin-2-yl) isonicotinamide] was tested, and the IC50 (CK1δ) was 1.1 nM and the IC50 (CK1ϵ) was 14 nM.
`O=C(Nc1cn2nc(-c3c(-c4ccc(F)cc4)nn4c3CCCC4)ccc2n1)c1ccncc1` [Example 63, N-(6-(2-(4-Fluorophenyl)-4,5,6,7-tetrahydropyrazolo[1,5-a]pyridin-3-yl)imidazo[1,2-b]pyridazin-2-yl) isonicotinamide] gave an IC50 (CK1δ) of 0.3 nM and an IC50 (CK1ϵ) of 1.2 nM.
With `O=C(Nc1cn2nc(-c3c(-c4ccc(F)cc4)nn4c3CN(CCCF)CC4)ccc2n1)c1ccnc(F)c1` [Example 28, 2-Fluoro-N-(6-(2-(4-fluorophenyl)-5-(3-fluoropropyl)-4,5,6,7-tetrahydropyrazolo[1,5-a]pyrazin-3-yl)imidazo[1,2-b]pyridazin-2-yl)isonicotinamide] the IC50 (CK1δ) was 0.2 nM and the IC50 (CK1ϵ) was 2.5 nM.
Molecule `O=C(Nc1cn2nc(-c3c(-c4ccc(F)cc4)nn4c3CN(C(=O)c3ccc(F)cc3)CC4)ccc2n1)c1ccnc(F)c1` [Example 14, 2-Fluoro-N-(6-(5-(4-fluorobenzoyl)-2-(4-fluorophenyl)-4,5,6,7-tetrahydropyrazolo[1,5-a]pyrazin-3-yl)imidazo[1,2-b]pyridazin-2-yl) isonicotinamide] has an IC50 (CK1δ) of 0.5 nM and an IC50 (CK1ϵ) of 3.1 nM.
With `O=C(Nc1cn2nc(-c3c(-c4ccc(F)cc4)nn4c3CNCC4)ccc2n1)c1ccncc1` [Example 3, N-(6-(2-(4-Fluorophenyl)-4,5,6,7-tetrahydropyrazolo[1,5-a]pyrazin-3-yl)imidazo[1,2-b]pyridazin-2-yl)isonicotinamide] the IC50 (CK1δ) was 0.5 nM and the IC50 (CK1ϵ) was 5.1 nM.
For `O=C(Nc1cn2nc(-c3c(-c4ccc(F)cc4)nn4c3COCC4)ccc2n1)c1ccnc(F)c1` [Example 53, 2-Fluoro-N-(6-(2-(4-fluorophenyl)-6,7-dihydro-4H-pyrazolo[5,1-c][1,4]oxazin-3-yl)imidazo[1,2-b]pyridazin-2-yl)isonicotinamide], the IC50 (CK1δ) was 0.4 nM and the IC50 (CK1ϵ) was 4.1 nM.
With `O=C(Nc1cn2nc(-c3c(-c4ccc(F)cc4)nn4c3CN(C(=O)c3ccc(F)c(F)c3)CC4)ccc2n1)c1ccnc(F)c1` [Example 18, N-(6-(5-(3,4-Difluorobenzoyl)-2-(4-fluorophenyl)-4,5,6,7-tetrahydropyrazolo[1,5-a]pyrazin-3-yl)imidazo[1,2-b]pyridazin-2-yl)-2-fluoroisonicotinamide] the IC50 (CK1δ) was 0.5 nM and the IC50 (CK1ϵ) was 5.6 nM.
In the case of `O=C(Nc1cn2nc(-c3c(-c4ccc(F)cc4)noc3C3CCOCC3)ccc2n1)c1ccnc(-c2cccnc2)c1` [Example 71, N-(6-(3-(4-Fluorophenyl)-5-(tetrahydro-2H-pyran-4-yl)isoxazol-4-yl)imidazo[1,2-b]pyridazin-2-yl)-[2,3′-bipyridine]-4-carboxamide], the IC50 (CK1δ) is reported as 2.5 nM and the IC50 (CK1ϵ) is reported as 29 nM.
With `O=C(Nc1cn2nc(-c3c(-c4ccc(F)cc4)nn4c3CNCC4)ccc2n1)c1cc(F)nc(F)c1` [Example 5, 2,6-Difluoro-N-(6-(2-(4-fluorophenyl)-4,5,6,7-tetrahydropyrazolo[1,5-a]pyrazin-3-yl)imidazo[1,2-b]pyridazin-2-yl)isonicotinamide] the IC50 (CK1δ) was 0.4 nM and the IC50 (CK1ϵ) was 4.7 nM.
Molecule `O=C(Nc1cn2nc(-c3c(-c4ccc(F)cc4)nn4c3CNCC4)ccc2n1)c1ccnc(C(F)(F)F)c1` [Example 10, N-(6-(2-(4-Fluorophenyl)-4,5,6,7-tetrahydropyrazolo[1,5-a]pyrazin-3-yl)imidazo[1,2-b]pyridazin-2-yl)-2-(trifluoromethyl)isonicotinamide] has an IC50 (CK1δ) of 2.1 nM and an IC50 (CK1ϵ) of 12.6 nM.
Molecule `O=C(Nc1cn2nc(-c3c(-c4ccc(F)cc4)nn4c3CN(C3CC3)CC4)ccc2n1)c1ccnc(F)c1` [Example 31, N-(6-(5-Cyclopropyl-2-(4-fluorophenyl)-4,5,6,7-tetrahydropyrazolo[1,5-a]pyrazin-3-yl)imidazo[1,2-b]pyridazin-2-yl)-2-fluoroisonicotinamide] has an IC50 (CK1δ) of 0.1 nM and an IC50 (CK1ϵ) of 1.1 nM.
`O=C(Nc1cn2nc(-c3c(-c4ccc(F)cc4)noc3C3CCOCC3)ccc2n1)c1ccnc(F)c1` [Example 69, 2-Fluoro-N-(6-(3-(4-fluorophenyl)-5-(tetrahydro-2H-pyran-4-yl)isoxazol-4-yl)imidazo[1,2-b]pyridazin-2-yl)isonicotinamide] gave an IC50 (CK1δ) of 1.4 nM and an IC50 (CK1ϵ) of 27.9 nM.
With `O=C(Nc1cn2nc(-c3c(-c4ccc(F)cc4)nn4c3CN(C(=O)Nc3ccncc3)CC4)ccc2n1)c1ccnc(F)c1` [Example 49, 3-(2-(2-Fluoroisonicotinamido)imidazo[1,2-b]pyridazin-6-yl)-2-(4-fluorophenyl)-N-(pyridin-4-yl)-6,7-dihydropyrazolo[1,5-a]pyrazine-5(4H)-carboxamide] the IC50 (CK1δ) was 0.7 nM and the IC50 (CK1ϵ) was 7.3 nM.
In the case of `O=C(Nc1cn2nc(-c3c(-c4ccc(F)cc4)nn4c3CN(C(=O)c3cccc(F)c3)CC4)ccc2n1)c1ccnc(F)c1` [Example 19, 2-Fluoro-N-(6-(5-(3-fluorobenzoyl)-2-(4-fluorophenyl)-4,5,6,7-tetrahydropyrazolo[1,5-a]pyrazin-3-yl)imidazo[1,2-b]pyridazin-2-yl) isonicotinamide], the IC50 (CK1δ) is reported as 0.2 nM and the IC50 (CK1ϵ) is reported as 2.7 nM.
Work on `O=C(Nc1cn2nc(-c3c(-c4ccc(F)cc4)nn4c3CN(C(=O)NCC(F)(F)F)CC4)ccc2n1)c1ccnc(F)c1` [Example 48, 3-(2-(2-Fluoroisonicotinamido)imidazo[1,2-b]pyridazin-6-yl)-2-(4-fluorophenyl)-N-(2,2,2-trifluoroethyl)-6,7-dihydropyrazolo[1,5-a]pyrazine-5(4H)-carboxamide] yielded an IC50 (CK1δ) of 0.4 nM and an IC50 (CK1ϵ) of 5.6 nM.
Molecule `O=C(Nc1cn2nc(-c3c(-c4ccc(F)cc4)nn4c3COCC4)ccc2n1)c1ccnc(-c2cccnc2)c1` [Example 57, N-(6-(2-(4-Fluorophenyl)-6,7-dihydro-4H-pyrazolo[5,1-c][1,4]oxazin-3-yl)imidazo[1,2-b]pyridazin-2-yl)-[2,3′-bipyridine]-4-carboxamide] has an IC50 (CK1δ) of 0.2 nM and an IC50 (CK1ϵ) of 1.7 nM.
`O=C(Nc1cn2nc(-c3c(-c4ccc(F)cc4)nn4c3CCC4)ccc2n1)c1ccccc1` [Example 68, N-(6-(2-(4-Fluorophenyl)-5,6-dihydro-4H-pyrrolo[1,2-b]pyrazol-3-yl)imidazo[1,2-b]pyridazin-2-yl)benzamide] gave an IC50 (CK1δ) of 0.3 nM and an IC50 (CK1ϵ) of 3.6 nM.
